The experiment deals with T1, AR (Homo sapiens, UniProt P10275).
T1 construct: endogenous in cells; host or cells: VCaP cells
T1 sequence (P10275 1-920): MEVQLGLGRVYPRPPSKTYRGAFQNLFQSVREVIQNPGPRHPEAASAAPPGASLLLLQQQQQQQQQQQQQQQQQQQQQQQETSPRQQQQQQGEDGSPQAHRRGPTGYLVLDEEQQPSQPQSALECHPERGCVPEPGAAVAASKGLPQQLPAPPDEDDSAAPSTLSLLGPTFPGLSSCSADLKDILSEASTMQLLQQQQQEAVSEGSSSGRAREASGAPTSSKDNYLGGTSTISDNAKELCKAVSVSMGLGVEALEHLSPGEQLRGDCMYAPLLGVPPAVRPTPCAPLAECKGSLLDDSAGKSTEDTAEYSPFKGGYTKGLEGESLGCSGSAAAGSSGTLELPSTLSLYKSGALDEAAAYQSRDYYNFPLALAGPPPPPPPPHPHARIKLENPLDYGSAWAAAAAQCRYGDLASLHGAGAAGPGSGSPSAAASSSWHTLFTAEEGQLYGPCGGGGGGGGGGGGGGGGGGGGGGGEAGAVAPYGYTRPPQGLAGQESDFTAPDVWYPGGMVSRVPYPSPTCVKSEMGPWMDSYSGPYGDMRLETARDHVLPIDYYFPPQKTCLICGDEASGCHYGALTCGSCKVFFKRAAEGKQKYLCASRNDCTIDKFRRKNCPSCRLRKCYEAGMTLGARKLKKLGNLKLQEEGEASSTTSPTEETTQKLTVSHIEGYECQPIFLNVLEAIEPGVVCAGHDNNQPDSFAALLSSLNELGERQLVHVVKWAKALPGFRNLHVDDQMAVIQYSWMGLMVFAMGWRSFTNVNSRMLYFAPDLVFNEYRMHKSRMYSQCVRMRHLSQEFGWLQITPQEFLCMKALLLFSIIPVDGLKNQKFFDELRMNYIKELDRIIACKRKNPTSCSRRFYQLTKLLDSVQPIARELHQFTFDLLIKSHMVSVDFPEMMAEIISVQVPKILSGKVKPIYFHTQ
The experiment in a line: VCAP AR Degradation Assay. Format: cell-based. As to conditions: for Y (AR degradation efficiency, % of DMSO control): class symbols *; for DC50: class symbols A-C. Put shortly:
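AR protein in lysates quantified by sandwich ELISA after 24 h exposure of VCaP cells at 37 °C to 10 concentrations (1:3 steps, 5 μM top, final). Four-parameter logistic fit of percent-of-DMSO levels gave DC50 (50% degradation), EC50 and minimal AR level Y.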

Where two headings read alike, the source gives them in different places. Bounds are passed on as bounds.

Regarding `CC1(C)C(=O)N(c2cnc(C#N)c(C(F)(F)F)c2)C(=S)N1c1ccc(OCCN2CCN(CC(=O)Nc3cccc(NC4CCC(=O)NC4=O)c3)CC2)c(CCF)c1` (stereo not shown) [Example 161, 2-(4-(2-(4-(3-(6-cyano-5-(trifluoromethyl)pyridin-3-yl)-5,5-dimethyl-4-oxo-2-thioxoimidazolidin-1-yl)-2-(2-fluoroethyl)phenoxy)ethyl)piperazin-1-yl)-N-(3-(2,6-dioxopiperidin-3-ylamino)phenyl)acetamide], the “Y (AR degradation efficiency, % of DMSO control)” value is “* (0<Y<=25%)”. Also, the DC50 (as a rule, the concentration at which degradation of the target reaches its halfway point) (read-out: DC50) was below 100 nM.

Consider `CC(C)c1cc(N2C(=S)N(c3ccc(C#N)c(C(F)(F)F)c3)C(=O)C2(C)C)ccc1OCCN1CCN(CC(=O)Nc2cccc(NC3CCC(=O)NC3=O)c2)[C@H](C)C1` (stereo partly drawn) [Example 162, 2-((R)-4-(2-(4-(3-(4-cyano-3-(trifluoromethyl)phenyl)-5,5-dimethyl-4-oxo-2-thioxoimidazolidin-1-yl)-2-isopropylphenoxy)ethyl)-2-methylpiperazin-1-yl)-N-(3-(2,6-dioxopiperidin-3-ylamino)phenyl)acetamide], for which the “Y (AR degradation efficiency, % of DMSO control)” value is reported as “** (25%<Y<=35%)”. For the same molecule, the DC50 (read-out: DC50) lay in the range of 100 to 500 nM.

As for `CC(C)c1cc(N2C(=S)N(c3cnc(C#N)c(C(F)(F)F)c3)C(=O)C2(C)C)ccc1OCCN1CCN(CC(=O)Nc2cccc(NC3CCC(=O)NC3=O)c2)[C@H](C)C1` (stereo partly drawn) [Example 163, 2-((R)-4-(2-(4-(3-(6-cyano-5-(trifluoromethyl)pyridin-3-yl)-5,5-dimethyl-4-oxo-2-thioxoimidazolidin-1-yl)-2-isopropylphenoxy)ethyl)-2-methylpiperazin-1-yl)-N-(3-(2,6-dioxopiperidin-3-ylamino)phenyl)acetamide], the “Y (AR degradation efficiency, % of DMSO control)” value was “* (0<Y<=25%)”. The DC50 (read-out: DC50) was in the range of 100 to 500 nM.

Regarding `C[C@@H]1CN(CCOc2ccc(N3C(=S)N(c4ccc(C#N)c(C(F)(F)F)c4)C(=O)C3(C)C)cc2CCF)CCN1CC(=O)Nc1cccc(NC2CCC(=O)NC2=O)c1` (stereo partly drawn) [Example 164, 2-((R)-4-(2-(4-(3-(4-cyano-3-(trifluoromethyl)phenyl)-5,5-dimethyl-4-oxo-2-thioxoimidazolidin-1-yl)-2-(2-fluoroethyl)phenoxy)ethyl)-2-methylpiperazin-1-yl)-N-(3-(2,6-dioxopiperidin-3-ylamino)phenyl)acetamide], the “Y (AR degradation efficiency, % of DMSO control)” value is listed as “* (0<Y<=25%)”. Further, the DC50 (read-out: DC50) was below 100 nM.

On to `CCc1cc(N2C(=S)N(c3cnc(C#N)c(C(F)(F)F)c3)C(=O)C2(C)C)ccc1OCCN1CCN(C2(C(=O)Nc3cc(Cl)cc(NC4CCC(=O)NC4=O)c3)CC2)CC1` (stereo not shown) [Example 165, N-(3-chloro-5-(2,6-dioxopiperidin-3-ylamino)phenyl)-1-(4-(2-(4-(3-(6-cyano-5-(trifluoromethyl)pyridin-3-yl)-5,5-dimethyl-4-oxo-2-thioxoimidazolidin-1-yl)-2-ethylphenoxy)ethyl)piperazin-1-yl)cyclopropanecarboxamide], for which the “Y (AR degradation efficiency, % of DMSO control)” value was “* (0<Y<=25%)”. The DC50 (read-out: DC50) is below 100 nM.

With `C[C@@H]1CN(CCOc2ccc(N3C(=S)N(c4cnc(C#N)c(C(F)(F)F)c4)C(=O)C3(C)C)cc2CCF)CCN1CC(=O)Nc1cccc(NC2CCC(=O)NC2=O)c1` (stereo partly drawn) [Example 166, 2-((R)-4-(2-(4-(3-(6-cyano-5-(trifluoromethyl)pyridin-3-yl)-5,5-dimethyl-4-oxo-2-thioxoimidazolidin-1-yl)-2-(2-fluoroethyl)phenoxy)ethyl)-2-methylpiperazin-1-yl)-N-(3-(2,6-dioxopiperidin-3-ylamino)phenyl)acetamide], the “Y (AR degradation efficiency, % of DMSO control)” value is “* (0<Y<=25%)”. Further, for the setting “read-out: DC50”, the DC50 is below 100 nM.

Regarding `CCc1cc(N2C(=S)N(c3cnc(C#N)c(Cl)c3)C(=O)C2(C)C)ccc1OCCN1CCN(CC(=O)Nc2cccc(NC3CCC(=O)NC3=O)c2)[C@H](C)C1` (stereo partly drawn) [Example 167, 2-((R)-4-(2-(4-(3-(5-chloro-6-cyanopyridin-3-yl)-5,5-dimethyl-4-oxo-2-thioxoimidazolidin-1-yl)-2-ethylphenoxy)ethyl)-2-methylpiperazin-1-yl)-N-(3-(2,6-dioxopiperidin-3-ylamino)phenyl)acetamide], the “Y (AR degradation efficiency, % of DMSO control)” value is “* (0<Y<=25%)”. In addition, the DC50 (read-out: DC50) is below 100 nM.

In the case of `CCc1cc(N2C(=S)N(c3ccc(C#N)c(Cl)c3)C(=O)C2(C)C)ccc1OCCN1CCN(CC(=O)Nc2cccc(NC3CCC(=O)NC3=O)c2)[C@H](C)C1` (stereo partly drawn) [Example 168, 2-((R)-4-(2-(4-(3-(3-chloro-4-cyanophenyl)-5,5-dimethyl-4-oxo-2-thioxoimidazolidin-1-yl)-2-ethylphenoxy)ethyl)-2-methylpiperazin-1-yl)-N-(3-(2,6-dioxopiperidin-3-ylamino)phenyl)acetamide], the “Y (AR degradation efficiency, % of DMSO control)” value is listed as “* (0<Y<=25%)”. For the same molecule, under “read-out: DC50”, the DC50 is below 100 nM.

In the case of `CCc1cc(N2C(=S)N(c3cnc(C#N)c(C(F)(F)F)c3)C(=O)C2(C)C)ccc1OCCN1C[C@@H](C)N(CC(=O)Nc2cc(Cl)cc(NC3CCC(=O)NC3=O)c2)C[C@H]1C` (stereo partly drawn) [Example 169, N-(3-chloro-5-(2,6-dioxopiperidin-3-ylamino)phenyl)-2-((2R,5R)-4-(2-(4-(3-(6-cyano-5-(trifluoromethyl)pyridin-3-yl)-5,5-dimethyl-4-oxo-2-thioxoimidazolidin-1-yl)-2-ethylphenoxy)ethyl)-2,5-dimethylpiperazin-1-yl)acetamide], the “Y (AR degradation efficiency, % of DMSO control)” value is “* (0<Y<=25%)”. Moreover, the DC50 (read-out: DC50) is below 100 nM.

For the molecule `CC(C)c1cc(N2C(=S)N(c3ccc(C#N)c(C(F)(F)F)c3)C(=O)C2(C)C)ccc1OCCN1C[C@@H](C)N(CC(=O)Nc2cccc(NC3CCC(=O)NC3=O)c2)[C@@H](C)C1` (stereo partly drawn) [Example 170, 2-((2S,6R)-4-(2-(4-(3-(4-cyano-3-(trifluoromethyl)phenyl)-5,5-dimethyl-4-oxo-2-thioxoimidazolidin-1-yl)-2-isopropylphenoxy)ethyl)-2,6-dimethylpiperazin-1-yl)-N-(3-(2,6-dioxopiperidin-3-ylamino)phenyl)acetamide], the “Y (AR degradation efficiency, % of DMSO control)” value is “* (0<Y<=25%)”. Also, the DC50 (read-out: DC50) was below 100 nM.

`CCc1cc(N2C(=S)N(c3cnc(C#N)c(C(F)(F)F)c3)C(=O)C23CCC3)ccc1OCCN1CC2CCC(C1)N2CC(=O)Nc1cccc(NC2CCC(=O)NC2=O)c1` (stereo not shown) [Example 171, 2-(3-(2-(4-(7-(6-cyano-5-(trifluoromethyl)pyridin-3-yl)-8-oxo-6-thioxo-5,7-diazaspiro[3.4]octan-5-yl)-2-ethylphenoxy)ethyl)-3,8-diazabicyclo[3.2.1]octan-8-yl)-N-(3-(2,6-dioxopiperidin-3-ylamino)phenyl)acetamide]: the “Y (AR degradation efficiency, % of DMSO control)” value is listed as “* (0<Y<=25%)” and the DC50 was below 100 nM.

Take `CCc1cc(N2C(=S)N(c3cnc(C#N)c(C(F)(F)F)c3)C(=O)C23CCC3)ccc1OCCN1C[C@@H]2CC[C@H]1CN2CC(=O)Nc1cccc(NC2CCC(=O)NC2=O)c1` (stereo partly drawn) [Example 172, 2-((1S,4S)-5-(2-(4-(7-(6-cyano-5-(trifluoromethyl)pyridin-3-yl)-8-oxo-6-thioxo-5,7-diazaspiro[3.4]octan-5-yl)-2-ethylphenoxy)ethyl)-2,5-diazabicyclo[2.2.2]octan-2-yl)-N-(3-(2,6-dioxopiperidin-3-ylamino)phenyl)acetamide]: the “Y (AR degradation efficiency, % of DMSO control)” value was “*** (35%<Y<50%)”. Also, the DC50 (read-out: DC50) lay within 100 to 500 nM.

For `CCc1cc(N2C(=S)N(c3cnc(C#N)c(C(F)(F)F)c3)C(=O)C2(C)C)ccc1OCCN1CC2CCC(C1)N2CC(=O)Nc1cc(Cl)cc(NC2CCC(=O)NC2=O)c1` (stereo not shown) [Example 173, N-(3-chloro-5-(2,6-dioxopiperidin-3-ylamino)phenyl)-2-(3-(2-(4-(3-(6-cyano-5-(trifluoromethyl)pyridin-3-yl)-5,5-dimethyl-4-oxo-2-thioxoimidazolidin-1-yl)-2-ethylphenoxy)ethyl)-3,8-diazabicyclo[3.2.1]octan-8-yl)acetamide], the “Y (AR degradation efficiency, % of DMSO control)” value was “* (0<Y<=25%)” and the DC50 was below 100 nM.

Turning to `CC1(C)C(=O)N(c2ccc(C#N)c(C(F)(F)F)c2)C(=S)N1c1ccc(OCCN2CCN(CC(=O)Nc3cc(NC4CCC(=O)NC4=O)ccc3F)CC2)c(CC(F)F)c1` (stereo not shown) [Example 174, 2-(4-(2-(4-(3-(4-cyano-3-(trifluoromethyl)phenyl)-5,5-dimethyl-4-oxo-2-thioxoimidazolidin-1-yl)-2-(2,2-difluoroethyl)phenoxy)ethyl)piperazin-1-yl)-N-(5-(2,6-dioxopiperidin-3-ylamino)-2-fluorophenyl)acetamide], the “Y (AR degradation efficiency, % of DMSO control)” value is on record as “* (0<Y<=25%)”. Where the note is “read-out: DC50”, the DC50 was below 100 nM.

For the origin of these results see patent US12404241B2 (Celgene Corporation, priority 2018, dated 2025).
